# Like-named read-outs stand apart in the source and are kept apart here.
# What was measured:
# Enterobacteriaceae = assay: organism not typed; format: cell-based; conditions: Enterobacteriaceae, 2029 isolates; read-out: MIC90
# E. coli (WT) = assay: microbe, parasite or virus in culture; format: cell-based; conditions: Escherichia coli; E. coli (WT), 214 isolates; read-out: MIC90
# E. coli (ESBL) = assay: microbe, parasite or virus in culture; format: cell-based; conditions: Escherichia coli
# Klebsiella spp. (WT) = assay: microbe, parasite or virus in culture; format: cell-based; conditions: Klebsiella spp. (WT), 159 isolates; read-out: MIC90
# Klebsiella spp. (ESBL) = assay: microbe, parasite or virus in culture; format: cell-based; conditions: Klebsiella
# Klebsiella spp. (KPC) = assay: microbe, parasite or virus in culture; format: cell-based; conditions: Klebsiella
# [1] = tested on: Enterobacter aerogenes (WT); assay: microbe, parasite or virus in culture; format: cell-based; conditions: Klebsiella aerogenes; Enterobacter aerogenes (WT), 199 isolates; read-out: MIC90
# [2] = tested on: Enterobacter aerogenes (AmpC); assay: microbe, parasite or virus in culture; format: cell-based; conditions: Klebsiella aerogenes
# [3] = tested on: Enterobacter cloacae (WT); assay: microbe, parasite or virus in culture; format: cell-based; conditions: 202 isolates, read-out: MIC90
# [4] = tested on: Enterobacter cloacae (AmpC); assay: microbe, parasite or virus in culture; format: cell-based; conditions: Enterobacter cloacae
# [5] = tested on: Citrobacter freundii (AmpC); assay: microbe, parasite or virus in culture; format: cell-based; conditions: Citrobacter freundii
# [6] = tested on: Morganella morganii (AmpC); assay: microbe, parasite or virus in culture; format: cell-based; conditions: Morganella morganii
# Proteus mirabilis (WT) = assay: microbe, parasite or virus in culture; format: cell-based; conditions: Proteus mirabilis (WT), 235 isolates; read-out: MIC90
# Proteus vulgaris (WT) = assay: microbe, parasite or virus in culture; format: cell-based; conditions: Proteus vulgaris (WT), 41 isolates; read-out: MIC90
# Providencia spp.(all) = assay: microbe, parasite or virus in culture; format: cell-based; conditions: Providencia spp.(all), 68 isolates; read-out: MIC90
# S. marcescens (AmpC) = assay: microbe, parasite or virus in culture; format: cell-based; conditions: Serratia marcescens
# P. aeruginosa = assay: In vitro activity against P. aeruginosa clinical isolates; format: cell-based; conditions: P. aeruginosa, 2,008 clinical isolates; GSK2251052 based on potential susceptible breakpoint of ≦4 μg/mL
# Description: GSK2251052 was tested for activity against P. aeruginosa, and its activity was compared to other antibiotics of known activity. The results are shown below in Tables 2a and 2b. Of 2,008 clinical isolates tested (from 2009-2010 subjects, of which 40% were from North America) greater than 90% were susceptible to GSK2251052 based on a potential susceptible breakpoint of ≦4 μg/mL.
# E. coli ATCC 25922 = assay: Spontaneous frequency of resistance; format: cell-based; conditions: 24 h
# Description: (§1) Spontaneous Resistance Frequency was determined in vitro for GSK2251052 and the resistance mutants in E. coli ATCC 25922, K. pneumoniae ATCC 13883, and P. aeruginosa ATCC 27853 strains were characterized. GSK2251052 was prepared as described in U.S. Pat. No. 7,816,344 (the entire contents of which are hereby incorporated by reference herein). LB broth, Mueller Hinton II broth (adjusted), and Difco noble agar were obtained from Becton Dickinson (Cockeysville, Md., USA). M9 minimal broth containing 1×M9 salt, 0.5 μg/ML thiamine, 1 mM MgSO4, 0.1 mM CaCl2, 2% glucose, was obtained from Teknova (Hollister, Calif., USA). Antibacterial agents ciprofloxacin, ceftazidime, chloramphenicol, gentamycin, kanamycin, polymixin B, tobramycin and trimethoprim, and amino acids were obtained from Sigma Chemicals (St. Louis, Mo., USA). Strains were obtained from ATCC (Manassas, Va., USA).
# (§2) Selection of resistance to GSK2251052 was attempted by spreading various amounts of bacteria onto MHBII noble agar plates containing 4×MIC (minimum inhibitory concentration) or 10×MIC of GSK2251052. Colonies were counted after 24 hours and 48 hours incubation at 37° C. The resistance of these colonies was confirmed by their ability to grow on plates containing GSK2251052 at either 4× or 10×MIC. Frequency of resistance was determined by dividing the number of resistant mutants by the total number of cells plated as determined by plating dilutions of the overnight culture on LB plates.
# K. pneumoniae ATCC 13883 = assay: Spontaneous frequency of resistance; format: cell-based; conditions: 24 h
# Description: as §1, §2
# P. aeruginosa ATCC 27853 = assay: Spontaneous frequency of resistance; format: cell-based; conditions: 24 h
# Description: as §1, §2
# [7] = tested on: E. coli ATCC 25922 wild type and mutants; assay: MIC, wild type and GSK2251052 resistant mutants; format: cell-based; conditions: Escherichia coli
# Method in brief: (§3)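 MICs were determined following CLSI M7-A7 recommendations for aerobic bacteria. Strains were E. coli ATCC 25922, K. pneumoniae ATCC 13883, P. aeruginosa ATCC 27853 and six to ten laboratory-selected GSK2251052-resistant colonies of each, carrying mutations in the LeuRS editing domain.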
# [8] = tested on: K. pneumoniae ATCC 13883 wild type and mutants; assay: MIC, wild type and GSK2251052 resistant mutants; format: cell-based; conditions: Klebsiella pneumoniae
# Method in brief: as §3
# [9] = tested on: P. aeruginosa ATCC 27853 wild type and mutants; assay: MIC, wild type and GSK2251052 resistant mutants; format: cell-based; conditions: Pseudomonas aeruginosa
# Method in brief: as §3
# [10] = tested on: E. coli ATCC 25922, K. pneumoniae ATCC 13883 and P. aeruginosa ATCC 27853; assay: MIC, three strains and their mutants summarised; format: cell-based; conditions: MIC in E. coli, P. aeruginosa and K. pneumoniae mutants versus wild-type
# Description: as §1
# Susceptibility tests were performed following the recommendations for aerobic bacteria (M7-A7) from the Clinical and Laboratories Standards Institute (CLSI).
# Laboratory generated mutants resistant to GSK2251052 contain mutations in the editing domain of LeuRS. Six to ten GSK2251052 resistant colonies of E. coli ATCC 25922, K. pneumoniae ATCC 13883 and P. aeruginosa ATCC 27853 were selected for further analysis and their MICs to GSK2251052 were determined (Table 4-7).
# GSK2251052 resistant mutants were not cross-resistant to commercial antibiotics.
# K. pneumoniae = conditions: up regulation of an AcrAB efflux pump; Ruzin et al. AAC 2005; cited from earlier work
compound,measurement,setting,value
CC(C)(O/N=C(\C(=O)N[C@@H]1C(=O)N2C(C(=O)[O-])=C(C[n+]3ccccc3)CS[C@H]12)c1csc(N)n1)C(=O)O [Ceftazidime],MIC90,Enterobacteriaceae,> 16 µg/mL
same,MIC90,E. coli (WT),≤ 1 µg/mL
same,MIC90,E. coli (ESBL),> 16 µg/mL
same,MIC90,Klebsiella spp. (WT),≤ 1 µg/mL
same,MIC90,Klebsiella spp. (ESBL),> 16 µg/mL
same,MIC90,Klebsiella spp. (KPC),> 16 µg/mL
same,MIC90,[1],≤ 1 µg/mL
same,MIC90,[2],> 16 µg/mL
same,MIC90,[3],≤ 1 µg/mL
same,MIC90,[4],> 16 µg/mL
same,MIC90,[5],> 16 µg/mL
same,MIC90,[6],> 16 µg/mL
same,MIC90,Proteus mirabilis (WT),≤ 1 µg/mL
same,MIC90,Proteus vulgaris (WT),≤ 1 µg/mL
same,MIC90,Providencia spp.(all),8 µg/mL
same,MIC90,S. marcescens (AmpC),> 16 µg/mL
same,% susceptible,P. aeruginosa,66.4%
same,Frequency of Resistance,E. coli ATCC 25922; 4 X MIC,<3 × 10^−9
same,Frequency of Resistance,E. coli ATCC 25922; 10 X MIC,<3 × 10^−9
same,Frequency of Resistance,K. pneumoniae ATCC 13883; 4 X MIC,1 × 10^−8
same,Frequency of Resistance,K. pneumoniae ATCC 13883; 10 X MIC,<4 × 10^−9
same,Frequency of Resistance,P. aeruginosa ATCC 27853; 4 X MIC,2 × 10^−7
same,Frequency of Resistance,P. aeruginosa ATCC 27853; 10 X MIC,2 × 10^−8
same,MIC,"[7]; ATCC25922, E wt, read-out: MICs",0.5 µg/mL
same,MIC,"[7]; ATCC25922, read-out: MICs, mutant E 101",0.5 µg/mL
same,MIC,"[7]; ATCC25922, read-out: MICs, mutant E 102",0.5 µg/mL
same,MIC,"[7]; ATCC25922, read-out: MICs, mutant E 107",0.5 µg/mL
same,MIC,"[8]; ATCC13883, K wt., read-out: MICs",0.5 µg/mL
same,MIC,"[8]; ATCC13883, read-out: MICs, mutant K 104",0.5 µg/mL
same,MIC,"[8]; ATCC13883, read-out: MICs, mutant K 105",0.5 µg/mL
same,MIC,"[8]; ATCC13883, read-out: MICs, mutant K 107",0.5 µg/mL
same,MIC,"[8]; ATCC13883, read-out: MICs, mutant K 108",1 µg/mL
same,MIC,"[8]; ATCC13883, read-out: MICs, mutant K 110",0.5 µg/mL
same,MIC,"[9]; ATCC27853, P wt., read-out: MICs",2 µg/mL
same,MIC,"[9]; ATCC27853, read-out: MICs, mutant P 101",4 µg/mL
same,MIC,"[9]; ATCC27853, read-out: MICs, mutant P106",2 µg/mL
same,MIC,"[9]; ATCC27853, read-out: MICs, mutant P108",2 µg/mL
same,cross-resistance of GSK2251052 resistant mutants,[10],did not have any significant difference in MIC values than wild-type
CN(C)c1cc(NC(=O)CNC(C)(C)C)c(O)c2c1C[C@H]1C[C@H]3[C@H](N(C)C)C(O)=C(C(N)=O)C(=O)[C@@]3(O)C(O)=C1C2=O [Tigecycline],MIC90,Enterobacteriaceae,2 µg/mL
same,MIC90,E. coli (WT),0.25 µg/mL
same,MIC90,E. coli (ESBL),0.5 µg/mL
same,MIC90,Klebsiella spp. (WT),1 µg/mL
same,MIC90,Klebsiella spp. (ESBL),2 µg/mL
same,MIC90,Klebsiella spp. (KPC),2 µg/mL
same,MIC90,[1],0.5 µg/mL
same,MIC90,[2],2 µg/mL
same,MIC90,[3],0.5 µg/mL
same,MIC90,[4],4 µg/mL
same,MIC90,[5],2 µg/mL
same,MIC90,[6],4 µg/mL
same,MIC90,Proteus mirabilis (WT),4 µg/mL
same,MIC90,Proteus vulgaris (WT),2 µg/mL
same,MIC90,Providencia spp.(all),4 µg/mL
same,MIC90,S. marcescens (AmpC),2 µg/mL
same,phenotype of resistant mutants,K. pneumoniae,multidrug-resistant
